SMILES strings stand for the structures. A value given as a limit tells only on which side of the number the result lay.

For the first assay, the target named is IDH1 R132H (Homo sapiens (Human), UniProt O75874, R132H). The experiment in a line: Assays for IDH1 R132H Inhibitors (NADPH/aKG, resazurin detection). The format is biochemical.
IDH1 R132H, sequence (O75874 whole entry R132H): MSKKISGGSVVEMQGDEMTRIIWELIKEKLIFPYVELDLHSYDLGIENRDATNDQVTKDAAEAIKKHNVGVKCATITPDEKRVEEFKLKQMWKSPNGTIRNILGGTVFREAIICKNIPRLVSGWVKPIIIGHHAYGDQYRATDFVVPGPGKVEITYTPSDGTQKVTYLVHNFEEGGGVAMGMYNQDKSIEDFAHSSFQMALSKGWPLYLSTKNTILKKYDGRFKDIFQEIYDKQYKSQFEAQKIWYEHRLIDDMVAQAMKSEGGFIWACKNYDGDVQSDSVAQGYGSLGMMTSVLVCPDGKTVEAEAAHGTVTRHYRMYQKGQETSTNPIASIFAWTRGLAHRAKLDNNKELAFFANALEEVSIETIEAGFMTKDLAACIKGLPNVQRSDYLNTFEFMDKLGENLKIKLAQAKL
Details: not given
The gist of the method:
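Substrate mix held 8 uM NADPH plus 2 mM aKG; buffer was 20 mM Tris pH 7.5 with 150 mM NaCl, 10 mM MgCl2, 0.03% BSA. After 50 min room-temperature reaction, NADPH remaining was detected with 30 μM resazurin mix over 5 min.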
Compound `CC1(C)Cc2c(C#N)c(N3CCN(C(=O)c4ccco4)CC3)nc(C3CC3)c2CO1` [Compound 142, 8-cyclopropyl-6-(4-(furan-2-carbonyl)piperazin-1-yl)-3,3-dimethyl-3,4-dihydro-1H-pyrano[3,4-c]pyridine-5-carbonitrile] registered an IC50 of 1000 to 10000 nM.

The assay is the same for the next values; noted with them: IDH1 R132H enzyme, Table 2; read-out: IDHR132H Activity.
As to `CC(C)c1nc(N2CCN(C(=O)c3ccc(Cl)cc3Cl)CC2)c(C#N)c2c1COCC2` [Compound 106, 6-(4-(2,4-dichlorobenzoyl)piperazin-1-yl)-8-isopropyl-3,4-dihydro-1H-pyrano[3,4-c]pyridine-5-carbonitrile], the IC50 lay within 1000 to 10000 nM.

As for `CCNC(=O)N1CCN(c2nc(C3CCCCC3)c3c(c2C#N)CCOC3)C[C@H]1C` [Compound 335, (R)-4-(5-cyano-8-cyclohexyl-3,4-dihydro-1H-pyrano[3,4-c]pyridin-6-yl)-N-ethyl-2-methylpiperazine-1-carboxamide], the IC50 was in the range of 1000 to 10000 nM.

In the case of `CC[C@@H]1CN(c2nc(C3CC3)c3c(c2C#N)CC(C)(C)OC3)CCN1C(=O)Cc1ccccn1` [Compound 290], the IC50 lay in the range of 1000 to 10000 nM.

Consider `C#CCNC(=O)N1CCN(c2nc(C3CCCCC3)c3c(c2C#N)CCOC3)C[C@H]1C` [Compound 361, (R)-4-(5-cyano-8-cyclohexyl-3,4-dihydro-1H-pyrano[3,4-c]pyridin-6-yl)-2-methyl-N-(prop-2-ynyl)piperazine-1-carboxamide], for which the IC50 lay in the range of 1000 to 10000 nM.

Take `CC(C)c1nc(N2CCN(C(=O)Cc3cccnc3)[C@H](C(C)C)C2)c(C#N)c2c1COC(C)(C)C2` [Compound 250, (R)-8-isopropyl-6-(3-isopropyl-4-(2-(pyridin-3-yl)acetyl)piperazin-1-yl)-3,3-dimethyl-3,4-dihydro-1H-pyrano[3,4-c]pyridine-5-carbonitrile]: the IC50 fell in the range of 500 to 1000 nM.

As for `CC(C)c1nc(N2CCN(C(=O)NC3CCCCC3)CC2)c(C#N)c2c1COCC2` [Compound 107, 4-(5-cyano-8-isopropyl-3,4-dihydro-1H-pyrano[3,4-c]pyridin-6-yl)-N-cyclohexylpiperazine-1-carboxamide], the IC50 is 1000 to 10000 nM.

For `CC(C)[C@@H]1CN(c2nc(C3CC3)c3c(c2C#N)CC(C)(C)OC3)CCN1C(=O)C1CC1` [Compound 376, (R)-6-(4-(cyclopropanecarbonyl)-3-isopropylpiperazin-1-yl)-8-cyclopropyl-3,3-dimethyl-3,4-dihydro-1H-pyrano[3,4-c]pyridine-5-carbonitrile], the IC50 is < 500 nM.

As for `C[C@@H]1CN(c2nc(C3CC3)c3c(c2C#N)CC(C)(C)OC3)CCN1C(=O)c1ccoc1` [Compound 164], the IC50 is 500 to 1000 nM.

As for `CC(C)[C@@H]1CN(c2nc(C3CC3)c3c(c2C#N)CC(C)(C)OC3)CCN1C(=O)OCCO` [Compound 368, (R)-2-hydroxyethyl 4-(5-cyano-8-cyclopropyl-3,3-dimethyl-3,4-dihydro-1H-pyrano[3,4-c]pyridin-6-yl)-2-isopropylpiperazine-1-carboxylate], the IC50 lay in the range of 500 to 1000 nM.

As to `CC(C)COC(=O)N1CCN(c2nc(C3CC3)c3c(c2C#N)CC(C)(C)OC3)C[C@H]1C(C)C` [Compound 339, (R)-isobutyl 4-(5-cyano-8-cyclopropyl-3,3-dimethyl-3,4-dihydro-1H-pyrano[3,4-c]pyridin-6-yl)-2-isopropyl-piperazine-1-carboxylate], the IC50 was in the range of 1000 to 10000 nM.

For `CC(C)[C@@H]1CN(c2nc(C3CC3)c3c(c2C#N)CC(C)(C)OC3)CCN1C(=O)Cn1cc(Br)cn1` [Compound 415, (R)-6-(4-(2-(4-bromo-1H-pyrazol-1-yl)acetyl)-3-isopropylpiperazin-1-yl)-8-cyclopropyl-3,3-dimethyl-3,4-dihydro-1H-pyrano[3,4-c]pyridine-5-carbonitrile], the IC50 lay in the range of 500 to 1000 nM.

`CC(C)c1nc(N2CCN(C(=O)c3cscn3)[C@H](C)C2)c(C#N)c2c1COC(C)(C)C2` [Compound 252, (R)-8-isopropyl-3,3-dimethyl-6-(3-methyl-4-(thiazole-4-carbonyl)piperazin-1-yl)-3,4-dihydro-1H-pyrano[3,4-c]pyridine-5-carbonitrile]: the IC50 lay within 1000 to 10000 nM.

For the compound `N#Cc1c(N2CCN(C(=O)C3CC3)CC2)nc(C2CCCCC2)c2c1CCOC2` [Compound 141, 8-cyclohexyl-6-(4-(cyclopropanecarbonyl)piperazin-1-yl)-3,4-dihydro-1H-pyrano[3,4-c]pyridine-5-carbonitrile], the IC50 lay in the range of 1000 to 10000 nM.

For the compound `C[C@@H]1CN(c2nc(C3CCCCC3)c3c(c2C#N)CCOC3)CCN1C(=O)c1nccn1C` [Compound 262, (R)-8-cyclohexyl-6-(3-methyl-4-(1-methyl-1H-imidazole-2-carbonyl)piperazin-1-yl)-3,4-dihydro-1H-pyrano[3,4-c]pyridine-5-carbonitrile], the IC50 was in the range of 1000 to 10000 nM.

For `C[C@@H]1CN(C(=O)c2ccco2)CCN1c1nc(C2CC2)c2c(c1C#N)CC(C)(C)OC2` [Compound 204, (R)-8-cyclopropyl-6-(4-(furan-2-carbonyl)-2-methylpiperazin-1-yl)-3,3-dimethyl-3,4-dihydro-1H-pyrano[3,4-c]pyridine-5-carbonitrile], the IC50 was 1000 to 10000 nM.

In the case of `CC(C)[C@@H]1CN(c2nc(C3CC3)c3c(c2C#N)CC(C)(C)OC3)CCN1C(=O)Cc1ccccn1` [Compound 211], the IC50 was < 500 nM.

In the case of `CC(C)[C@@H]1CN(c2nc(C3CC3)c3c(c2C#N)CC(C)(C)OC3)CCN1C(=O)Cn1ccnc1` [Compound 374, (R)-6-(4-(2-(1H-imidazol-1-yl)acetyl)-3-isopropylpiperazin-1-yl)-8-cyclopropyl-3,3-dimethyl-3,4-dihydro-1H-pyrano[3,4-c]pyridine-5-carbonitrile], the IC50 lay in the range of 1000 to 10000 nM.

With `Cc1occc1C(=O)N1CCN(c2nc(C3CC3)c3c(c2C#N)CC(C)(C)OC3)CC1(C)C` [Compound 321], the IC50 fell in the range of 1000 to 10000 nM.

Take `CC(C)[C@@H]1CN(c2nc(C3CC3)c3c(c2C#N)CC(C)(C)OC3)CCN1C(=O)Nc1ccc(F)cc1` [Compound 283]: the IC50 lay in the range of 1000 to 10000 nM.

Consider `Cc1ccoc1C(=O)N1CCN(c2nc(C(C)C)c3c(c2C#N)CC(C)(C)OC3)C[C@H]1C` [Compound 173, (R)-8-isopropyl-3,3-dimethyl-6-(3-methyl-4-(3-methylfuran-2-carbonyl)piperazin-1-yl)-3,4-dihydro-1H-pyrano[3,4-c]pyridine-5-carbonitrile], for which the IC50 was 1000 to 10000 nM.

On to `Cc1cc(C(=O)N2CCN(c3nc(C(C)C)c4c(c3C#N)CC(C)(C)OC4)C[C@H]2C)c(C)o1` [Compound 196, (R)-6-(4-(2,5-dimethylfuran-3-carbonyl)-3-methylpiperazin-1-yl)-8-isopropyl-3,3-dimethyl-3,4-dihydro-1H-pyrano[3,4-c]pyridine-5-carbonitrile], for which the IC50 is 1000 to 10000 nM.

Still in this assay, the particulars now being: IDH1 R132H enzyme, Table 3; read-out: R132H IC50.
On to `CC1(C)Cc2c(C#N)c(N3CCN(C(=O)C4CC4)C(CC(F)(F)F)C3)nc(C3CC3)c2CO1` (stereo not drawn) [Compound 471, 6-(4-(cyclopropanecarbonyl)-3-(2,2,2-trifluoroethyl)piperazin-1-yl)-8-cyclopropyl-3,3-dimethyl-3,4-dihydro-1H-pyrano[3,4-c]pyridine-5-carbonitrile], for which the IC50 lay within 500 to 1000 nM.

On to `COCCC(=O)N1CCN(c2nc(C3CC3)c3c(c2C#N)CCN(C(=O)CCO)C3)C[C@H]1C1CC1` [Compound 501, (R)-1-cyclopropyl-3-(3-cyclopropyl-4-(3-methoxypropanoyl)piperazin-1-yl)-′7-(3-hydroxypropanoyl)-5,6,7,8-tetrahydro-2,7-naphthyridine-4-carbonitrile], for which the IC50 fell in the range of 500 to 1000 nM.

Source of the values: US9662327B2 (AGIOS PHARMACEUTICALS, INC, priority 2011, dated 2017).
